Source: publication PMC4844702, “Selective inhibition of the kinase DYRK1A by targeting its folding process” (Nature Communications, 2016)

What was measured:
Test in all cases: Kinase panel (Carna)
Type in all cases: biochemical
ITK = biological target: T1, ITK (Homo sapiens, UniProt Q08881)
T1 construct: purchased Carna Biosciences
Source text: (§1) Detailed information on the assay conditions is available on the website of Carna Biosciences (http://www.carnabio.com).

PAK5 = biological target: T2, PAK5 (Homo sapiens, UniProt Q9P286)
T2 construct: purchased Carna Biosciences
Source text: as §1

MAP2K4_Cascade = biological target: T3, MAP2K4_Cascade (Homo sapiens, UniProt P45985)
T3 construct: purchased Carna Biosciences

TBK1 = biological target: T4, TBK1 (Homo sapiens, UniProt Q9UHD2)
T4 construct: purchased Carna Biosciences
Source text: as §1

NEK1 = biological target: T5, NEK1 (Homo sapiens, UniProt Q96PY6)
T5 construct: purchased Carna Biosciences
Source text: as §1

PRKX = biological target: T6, PRKX (Homo sapiens, UniProt P51817)
T6 construct: purchased Carna Biosciences

PKCζ = biological target: T7, PKCζ (Homo sapiens, UniProt Q05513)
T7 construct: purchased Carna Biosciences
Source text: as §1

MARK2 = biological target: T8, MARK2 (Homo sapiens, UniProt Q7KZI7)
T8 construct: purchased Carna Biosciences
Source text: as §1

PKD3 = biological target: T9, PKD3 (Homo sapiens, UniProt O94806)
T9 construct: purchased Carna Biosciences

PAK2 = biological target: T10, PAK2 (Homo sapiens, UniProt Q13177)
T10 construct: purchased Carna Biosciences
Source text: as §1

EPHA3 = biological target: T11, EPHA3 (Homo sapiens, UniProt P29320)
T11 construct: purchased Carna Biosciences

MUSK = biological target: T12, MUSK (Homo sapiens, UniProt O15146)
T12 construct: purchased Carna Biosciences
Source text: as §1

MELK = biological target: T13, MELK (Homo sapiens, UniProt Q14680)
T13 construct: purchased Carna Biosciences
Source text: as §1

AMPKα1/β1/γ1 = biological target: T14, AMPKα1/β1/γ1 (Homo sapiens, UniProt Q13131)
T14 construct: purchased Carna Biosciences
Source text: as §1

AKT2 = biological target: T15, AKT2 (Homo sapiens, UniProt P31751)
T15 construct: purchased Carna Biosciences
Source text: as §1

PHKG1 = biological target: T16, PHKG1 (Homo sapiens, UniProt Q16816)
T16 construct: purchased Carna Biosciences
Source text: as §1

IGF1R = biological target: T17, IGF1R (Homo sapiens, UniProt P08069)
T17 construct: purchased Carna Biosciences
Source text: as §1

SPHK1 = biological target: T18, SPHK1 (Homo sapiens, UniProt Q9NYA1)
T18 construct: purchased Carna Biosciences
Source text: as §1

BRSK1 = biological target: T19, BRSK1 (Homo sapiens, UniProt Q8TDC3)
T19 construct: purchased Carna Biosciences
Source text: as §1

NEK4 = biological target: T20, NEK4 (Homo sapiens, UniProt P51957)
T20 construct: purchased Carna Biosciences

MLK1_Cascade = biological target: T21, MLK1_Cascade (Homo sapiens, UniProt P80192)
T21 construct: purchased Carna Biosciences
Source text: as §1

PIM2 = biological target: T22, PIM2 (Homo sapiens, UniProt Q9P1W9)
T22 construct: purchased Carna Biosciences
Source text: as §1

AurB = biological target: T23, AurB (Homo sapiens, UniProt Q96GD4)
T23 construct: purchased Carna Biosciences
Source text: as §1

KIT = biological target: T24, KIT (Homo sapiens, UniProt P10721)
T24 construct: purchased Carna Biosciences
Source text: as §1

HIPK4 = biological target: T25, HIPK4 (Homo sapiens, UniProt Q8NE63)
T25 construct: purchased Carna Biosciences
Source text: as §1

FGFR4 = biological target: T26, FGFR4 (Homo sapiens, UniProt P22455)
T26 construct: purchased Carna Biosciences

CHK1 = biological target: T27, CHK1 (Homo sapiens, UniProt O14757)
T27 construct: purchased Carna Biosciences
Source text: as §1

MAP4K2 = biological target: T28, MAP4K2 (Homo sapiens, UniProt Q12851)
T28 construct: purchased Carna Biosciences
Source text: as §1

MST2 = biological target: T29, MST2 (Homo sapiens, UniProt Q13188)
T29 construct: purchased Carna Biosciences
Source text: as §1

ALK = biological target: T30, ALK (Homo sapiens, UniProt Q9UM73)
T30 construct: purchased Carna Biosciences
Source text: as §1

Haspin = biological target: T31, Haspin (Homo sapiens, UniProt Q8TF76)
T31 construct: purchased Carna Biosciences

MAP3K3_Cascade = biological target: T32, MAP3K3_Cascade (Homo sapiens, UniProt Q99759)
T32 construct: purchased Carna Biosciences
Source text: as §1

BRK = biological target: T33, BRK (Homo sapiens, UniProt Q13882)
T33 construct: purchased Carna Biosciences
Source text: as §1

ABL = biological target: T34, ABL (Homo sapiens, UniProt P00519)
T34 construct: purchased Carna Biosciences
Source text: as §1

p38γ = biological target: T35, p38γ (Homo sapiens, UniProt P53778)
T35 construct: purchased Carna Biosciences
Source text: as §1

PKD1 = biological target: T36, PKD1 (Homo sapiens, UniProt Q15139)
T36 construct: purchased Carna Biosciences
Source text: as §1

TAOK2 = biological target: T37, TAOK2 (Homo sapiens, UniProt Q9UL54)
T37 construct: purchased Carna Biosciences
Source text: as §1

ROCK2 = biological target: T38, ROCK2 (Homo sapiens, UniProt O75116)
T38 construct: purchased Carna Biosciences

FLT4 = biological target: T39, FLT4 (Homo sapiens, UniProt P35916)
T39 construct: purchased Carna Biosciences
Source text: as §1

AurC = biological target: T40, AurC (Homo sapiens, UniProt Q9UQB9)
T40 construct: purchased Carna Biosciences
Source text: as §1

FRK = biological target: T41, FRK (Homo sapiens, UniProt P42685)
T41 construct: purchased Carna Biosciences
Source text: as §1

CDK9/CycT1 = biological target: T42, CDK9/CycT1 (Homo sapiens, UniProt P50750)
T42 construct: purchased Carna Biosciences
Source text: as §1

TNK1 = biological target: T43, TNK1 (Homo sapiens, UniProt Q13470)
T43 construct: purchased Carna Biosciences
Source text: as §1

TIE2 = biological target: T44, TIE2 (Homo sapiens, UniProt Q02763)
T44 construct: purchased Carna Biosciences
Source text: as §1

HER2 = biological target: T45, HER2 (Homo sapiens, UniProt P04626)
T45 construct: purchased Carna Biosciences
Source text: as §1

T29 sequence (Q13188 whole entry): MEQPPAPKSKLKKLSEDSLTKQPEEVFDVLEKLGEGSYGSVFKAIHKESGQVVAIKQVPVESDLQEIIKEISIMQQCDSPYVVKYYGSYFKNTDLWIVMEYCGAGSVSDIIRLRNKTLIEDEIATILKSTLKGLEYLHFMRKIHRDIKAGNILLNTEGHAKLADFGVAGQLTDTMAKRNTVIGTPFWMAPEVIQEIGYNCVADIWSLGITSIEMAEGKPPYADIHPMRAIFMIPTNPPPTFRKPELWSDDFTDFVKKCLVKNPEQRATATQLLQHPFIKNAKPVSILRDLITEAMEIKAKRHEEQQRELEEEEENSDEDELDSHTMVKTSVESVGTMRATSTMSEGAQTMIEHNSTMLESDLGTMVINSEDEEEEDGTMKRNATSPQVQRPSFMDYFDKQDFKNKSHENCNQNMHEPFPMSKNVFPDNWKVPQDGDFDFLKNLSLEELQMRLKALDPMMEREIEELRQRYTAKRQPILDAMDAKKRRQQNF
T33 sequence (Q13882 whole entry): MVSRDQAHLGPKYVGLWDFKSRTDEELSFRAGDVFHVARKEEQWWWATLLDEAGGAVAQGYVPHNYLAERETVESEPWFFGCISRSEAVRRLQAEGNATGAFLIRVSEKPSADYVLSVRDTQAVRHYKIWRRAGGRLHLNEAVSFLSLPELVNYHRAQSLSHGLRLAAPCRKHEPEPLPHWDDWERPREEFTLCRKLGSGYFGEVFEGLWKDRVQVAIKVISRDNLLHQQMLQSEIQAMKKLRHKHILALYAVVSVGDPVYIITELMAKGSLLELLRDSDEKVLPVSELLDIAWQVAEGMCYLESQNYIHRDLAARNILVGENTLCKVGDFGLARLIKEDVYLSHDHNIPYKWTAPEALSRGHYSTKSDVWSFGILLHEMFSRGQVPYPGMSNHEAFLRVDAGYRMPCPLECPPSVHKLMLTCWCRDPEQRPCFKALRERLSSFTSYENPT
T21 sequence (P80192 whole entry): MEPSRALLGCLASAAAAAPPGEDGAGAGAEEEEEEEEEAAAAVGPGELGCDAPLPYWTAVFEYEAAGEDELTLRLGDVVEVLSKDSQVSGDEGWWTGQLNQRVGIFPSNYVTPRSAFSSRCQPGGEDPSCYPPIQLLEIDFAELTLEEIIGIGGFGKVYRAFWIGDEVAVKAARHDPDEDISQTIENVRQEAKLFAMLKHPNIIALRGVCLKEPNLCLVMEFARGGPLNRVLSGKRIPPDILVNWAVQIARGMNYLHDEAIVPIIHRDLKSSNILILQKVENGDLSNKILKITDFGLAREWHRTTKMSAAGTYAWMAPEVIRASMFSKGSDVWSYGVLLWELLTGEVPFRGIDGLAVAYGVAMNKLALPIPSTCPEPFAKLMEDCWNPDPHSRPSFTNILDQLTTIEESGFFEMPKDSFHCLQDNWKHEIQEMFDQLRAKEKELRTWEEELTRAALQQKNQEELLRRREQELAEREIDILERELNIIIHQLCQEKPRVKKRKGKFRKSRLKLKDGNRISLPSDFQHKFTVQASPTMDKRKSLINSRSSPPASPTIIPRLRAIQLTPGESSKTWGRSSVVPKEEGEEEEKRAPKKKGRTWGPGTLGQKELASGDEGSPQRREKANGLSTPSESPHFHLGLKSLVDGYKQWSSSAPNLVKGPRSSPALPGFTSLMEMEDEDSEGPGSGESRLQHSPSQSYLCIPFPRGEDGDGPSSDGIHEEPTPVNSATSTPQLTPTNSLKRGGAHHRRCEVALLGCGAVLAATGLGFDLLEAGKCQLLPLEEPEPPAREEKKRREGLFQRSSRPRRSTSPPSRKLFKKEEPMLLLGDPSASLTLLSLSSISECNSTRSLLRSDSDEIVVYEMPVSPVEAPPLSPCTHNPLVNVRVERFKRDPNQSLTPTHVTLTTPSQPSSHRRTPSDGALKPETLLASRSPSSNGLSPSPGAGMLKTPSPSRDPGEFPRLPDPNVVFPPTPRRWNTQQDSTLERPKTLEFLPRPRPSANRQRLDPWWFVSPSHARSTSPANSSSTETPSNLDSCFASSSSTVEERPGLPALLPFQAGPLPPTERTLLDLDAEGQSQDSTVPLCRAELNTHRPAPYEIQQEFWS
T38 sequence (O75116 whole entry): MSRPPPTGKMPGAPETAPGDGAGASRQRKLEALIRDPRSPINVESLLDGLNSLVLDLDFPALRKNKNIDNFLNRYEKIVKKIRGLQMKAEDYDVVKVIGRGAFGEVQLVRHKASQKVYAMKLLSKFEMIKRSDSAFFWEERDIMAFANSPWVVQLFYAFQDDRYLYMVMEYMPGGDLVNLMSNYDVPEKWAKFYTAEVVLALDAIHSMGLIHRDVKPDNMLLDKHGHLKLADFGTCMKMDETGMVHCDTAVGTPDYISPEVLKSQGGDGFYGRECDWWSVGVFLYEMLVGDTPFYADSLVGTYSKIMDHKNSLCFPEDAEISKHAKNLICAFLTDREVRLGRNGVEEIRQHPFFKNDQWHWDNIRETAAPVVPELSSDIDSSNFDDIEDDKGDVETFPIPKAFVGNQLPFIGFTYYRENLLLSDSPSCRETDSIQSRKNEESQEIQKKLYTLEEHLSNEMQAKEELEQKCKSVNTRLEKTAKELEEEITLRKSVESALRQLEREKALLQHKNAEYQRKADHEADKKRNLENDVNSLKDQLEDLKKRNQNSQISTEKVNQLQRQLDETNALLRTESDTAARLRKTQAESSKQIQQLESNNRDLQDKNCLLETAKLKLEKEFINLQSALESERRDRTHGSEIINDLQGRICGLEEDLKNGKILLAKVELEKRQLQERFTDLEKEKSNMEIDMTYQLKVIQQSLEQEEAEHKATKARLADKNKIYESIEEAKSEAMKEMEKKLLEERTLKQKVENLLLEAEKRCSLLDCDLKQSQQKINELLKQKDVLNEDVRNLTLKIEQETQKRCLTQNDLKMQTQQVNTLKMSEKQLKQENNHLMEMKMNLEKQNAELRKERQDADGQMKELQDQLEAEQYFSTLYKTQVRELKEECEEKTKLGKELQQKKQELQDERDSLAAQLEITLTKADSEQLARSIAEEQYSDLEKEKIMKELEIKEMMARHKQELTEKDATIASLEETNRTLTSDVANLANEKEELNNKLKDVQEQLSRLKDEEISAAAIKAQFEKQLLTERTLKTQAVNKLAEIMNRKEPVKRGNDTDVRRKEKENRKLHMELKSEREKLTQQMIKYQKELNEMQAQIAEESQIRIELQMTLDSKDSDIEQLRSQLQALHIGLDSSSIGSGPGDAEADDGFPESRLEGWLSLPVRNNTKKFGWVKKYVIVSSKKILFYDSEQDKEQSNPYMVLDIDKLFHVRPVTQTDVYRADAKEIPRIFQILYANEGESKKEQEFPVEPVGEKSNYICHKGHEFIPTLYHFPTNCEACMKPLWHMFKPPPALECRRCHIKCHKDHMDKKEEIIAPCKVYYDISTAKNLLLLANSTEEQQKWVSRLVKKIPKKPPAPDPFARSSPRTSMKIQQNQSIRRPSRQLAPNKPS
T2 sequence (Q9P286 whole entry): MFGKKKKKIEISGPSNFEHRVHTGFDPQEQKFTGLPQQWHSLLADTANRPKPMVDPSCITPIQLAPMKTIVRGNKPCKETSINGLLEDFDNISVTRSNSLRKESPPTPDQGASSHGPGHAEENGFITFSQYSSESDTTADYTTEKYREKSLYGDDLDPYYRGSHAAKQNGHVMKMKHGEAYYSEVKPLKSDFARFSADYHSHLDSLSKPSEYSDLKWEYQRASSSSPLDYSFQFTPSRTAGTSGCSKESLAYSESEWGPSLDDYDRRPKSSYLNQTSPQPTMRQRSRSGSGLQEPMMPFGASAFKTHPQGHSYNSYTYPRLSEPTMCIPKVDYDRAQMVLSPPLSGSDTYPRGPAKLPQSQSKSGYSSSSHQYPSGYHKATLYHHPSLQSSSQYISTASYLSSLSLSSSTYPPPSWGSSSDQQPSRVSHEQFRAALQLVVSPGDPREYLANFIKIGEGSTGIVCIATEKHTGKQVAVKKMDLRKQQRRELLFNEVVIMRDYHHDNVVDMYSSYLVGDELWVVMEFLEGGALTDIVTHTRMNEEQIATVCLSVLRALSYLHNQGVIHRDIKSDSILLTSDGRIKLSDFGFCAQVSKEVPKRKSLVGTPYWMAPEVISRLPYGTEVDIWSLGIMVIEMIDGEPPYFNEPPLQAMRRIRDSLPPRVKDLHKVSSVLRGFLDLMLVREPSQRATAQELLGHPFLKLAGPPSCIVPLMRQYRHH
T6 sequence (P51817 whole entry): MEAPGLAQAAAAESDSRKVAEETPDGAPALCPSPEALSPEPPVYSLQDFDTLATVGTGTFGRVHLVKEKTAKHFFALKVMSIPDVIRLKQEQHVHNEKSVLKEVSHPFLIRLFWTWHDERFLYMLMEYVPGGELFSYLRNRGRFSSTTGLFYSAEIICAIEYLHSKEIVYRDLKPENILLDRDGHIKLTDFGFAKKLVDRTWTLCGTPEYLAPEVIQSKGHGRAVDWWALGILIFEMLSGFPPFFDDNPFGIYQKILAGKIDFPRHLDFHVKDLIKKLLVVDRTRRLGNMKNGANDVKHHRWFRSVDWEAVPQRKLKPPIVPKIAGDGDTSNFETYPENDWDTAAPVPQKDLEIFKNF
T10 sequence (Q13177 whole entry): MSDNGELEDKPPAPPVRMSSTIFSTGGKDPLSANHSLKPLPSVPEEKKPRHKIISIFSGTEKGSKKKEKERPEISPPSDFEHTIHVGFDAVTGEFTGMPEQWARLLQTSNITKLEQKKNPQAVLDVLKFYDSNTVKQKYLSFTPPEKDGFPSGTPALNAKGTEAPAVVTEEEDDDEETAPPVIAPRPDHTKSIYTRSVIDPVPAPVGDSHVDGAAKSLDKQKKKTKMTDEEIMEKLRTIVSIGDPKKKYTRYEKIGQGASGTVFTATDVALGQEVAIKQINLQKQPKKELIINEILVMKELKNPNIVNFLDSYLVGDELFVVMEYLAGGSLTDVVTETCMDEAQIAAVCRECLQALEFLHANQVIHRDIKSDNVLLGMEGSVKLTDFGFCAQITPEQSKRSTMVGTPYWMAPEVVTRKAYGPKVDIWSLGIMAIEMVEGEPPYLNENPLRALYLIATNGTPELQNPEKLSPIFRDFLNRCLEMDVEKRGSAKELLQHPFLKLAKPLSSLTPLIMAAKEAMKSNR

## COc1ccc(/C=C2\SC(=S)NC2=O)cc1C#C[Si](C)(C)C [FINDY]
ITK
  inhibition at 10 µM: 1.2%
PAK5
  inhibition at 10 µM: -7%
MAP2K4_Cascade
  inhibition at 10 µM: 6.4%
TBK1
  inhibition at 10 µM: 4%
NEK1
  inhibition at 10 µM: 37.3%
PRKX
  inhibition at 10 µM: 3%
PKCζ
  inhibition at 10 µM: -6.1%
MARK2
  inhibition at 10 µM: 60.8%
PKD3
  inhibition at 10 µM: -13.4%
PAK2
  inhibition at 10 µM: -2.5%
EPHA3
  inhibition at 10 µM: 20.8%
MUSK
  inhibition at 10 µM: 4.1%
MELK
  inhibition at 10 µM: 20.6%
AMPKα1/β1/γ1
  inhibition at 10 µM: 8.6%
AKT2
  inhibition at 10 µM: 23.5%
PHKG1
  inhibition at 10 µM: 8.9%
IGF1R
  inhibition at 10 µM: 2.4%
SPHK1
  inhibition at 10 µM: 51.2%
BRSK1
  inhibition at 10 µM: 24.3%
NEK4
  inhibition at 10 µM: 6.8%
MLK1_Cascade
  inhibition at 10 µM: 48.7%
PIM2
  inhibition at 10 µM: 67.4%
AurB
  inhibition at 10 µM: 35.7%
KIT
  inhibition at 10 µM: 2.9%
HIPK4
  inhibition at 10 µM: 16.6%
FGFR4
  inhibition at 10 µM: 6.9%
CHK1
  inhibition at 10 µM: -119%
MAP4K2
  inhibition at 10 µM: 3.3%
MST2
  inhibition at 10 µM: -5.7%
ALK
  inhibition at 10 µM: -4.3%
Haspin
  inhibition at 10 µM: 30.3%
MAP3K3_Cascade
  inhibition at 10 µM: 3.3%
BRK
  inhibition at 10 µM: 3%
ABL
  inhibition at 10 µM: 13%
p38γ
  inhibition at 10 µM: 5%
PKD1
  inhibition at 10 µM: 11.8%
TAOK2
  inhibition at 10 µM: -1.2%
ROCK2
  inhibition at 10 µM: -2%
FLT4
  inhibition at 10 µM: 9.8%
AurC
  inhibition at 10 µM: 40.1%
FRK
  inhibition at 10 µM: 8.4%
CDK9/CycT1
  inhibition at 10 µM: 3.1%
TNK1
  inhibition at 10 µM: 7.3%
TIE2
  inhibition at 10 µM: 55.7%
HER2
  inhibition at 10 µM: -0.1%
